Assay results: patent US8097728B2, “Iminosugar compounds with antiflavirus activity” (Philadelphia Health & Education Corporation, priority 2007, dated 2012)
“Also recorded” adds a separate entry of the source. Read-outs that look alike come from different tables or passages of the source.

What was measured:
DV serotype 2 = test: DV yield reduction assay in BHK cells; type: cell-based, Dengue virus (DV) serotype 2; conditions: for selectivity ratio at 72 h: hamster, read-out: SI (Selective Index, CC50/IC50)
Description: In the DV infection assay, a serotype 2 DV was used to infect BHK cells in the presence or absence of testing compounds and viruses produced after 72 hours were titered in a manner similar to the WNV assay. In this experiment, N-butylcyclohexyl-DNJ (SP169), N-pentyl(1-hydroxylcyclohexyl)-DNJ (OSL-95II), […] and N-propylcyclohexyl-DNJ (SP173) were compared with NNDNJ (Wu et al., 2002) and castanospermine. […] All compounds had no toxicity at the highest concentrations used in this experiment (FIG. 5B, Table 1).

WNV = WNV yield reduction assay in BHK cells; conditions: for selectivity ratio at 48 h: hamster
Description: Cells and viruses. BVDV-free MDBK cells (CCL 22) were obtained from the American Type Culture Collection and propagated in DMEM/F12 essential medium supplemented with penicillin (500 U/ml), streptomycin (500 U/ml), and 10% heat inactivated horse serum (Invitrogen). Cells were maintained in a humidified incubator at 37° C. with 5% CO2. BVDV (NADL strain) was obtained from Dr. Rubin Donis (Univ. of Nebraska-Lincoln). For infections, virus inoculum was added in complete medium and adsorbed for 1 h at 37° C., the inoculum was then removed, the cells washed once with medium and fresh medium containing compounds added. Virus stocks were prepared by freeze-thawing the infected cells and culture supernatant three times followed by centrifugation at 1,000 g for 5 min. Stock titers were determined, and stocks were aliquoted and stored at −80° C. WNV was obtained from a cDNA clone of a human 2002 isolate from Texas (Rossi et al., 2005); virus obtained from BHK cells electroporated with the in vitro synthesized RNA from this cDNA clone was passaged in Vero cells before use in antiviral assays. Dengue virus (DV) serotype 2 was a New Guinea C virus that had been passaged 28 times in suckling mouse brain, twice in Vero cells, and once in C6/36 mosquito cells.
WNV and DV Yield Reduction assay: Antiviral activity against WNV was evaluated in a yield reduction assay. Briefly, BHK cells were plated in 96-well plates at a concentration of 2.5×10^4 cells/well. 24 hours after plating, the cells were infected with WNV at an MOI of 0.05. After 1 hour the inoculum was aspirated and the cells re-fed with fresh DMEM containing dilutions of the test compounds. Plates were then incubated at 37° C. for 48 hours, the supernatant collected and the WNV produced titered. For virus titration, Vero cells were plated in 96-well plates at 8.0×10^3 cells/well and incubated overnight. The Vero cell monolayers were then infected for 1 hour with various dilutions of the WNV supernatant, overlaid with media containing 0.6% tragacanth (ICN, CA) and incubated at 37° C. for 24-30 hours. The culture media was then aspirated; the plate was rinsed, air-dried, and fixed with 50 ul/well acetone/methanol (50:50). Viral foci were detected for enumeration by immunostaining as described previously (Rossi et al., 2005). For antiviral testing against DV, DV serotype 2, drug incubations and titrations were performed essentially as described for WNV, except that the virus was harvested from drug-treated cultures 72 hrs after infection, and foci were stained using hybridoma culture fluid harvested from monoclonal antibody-producing hybridoma clone D1-4G2 (Gentry et al., 1982) following 3 days of incubation on Vero cells under the tragacanth overlay.
For this purpose, BHK cells were infected with WNV at an moi of 0.05, and incubated in either the absence or presence of various concentrations of N-butylcyclohexyl-DNJ (SP169) and N-propylcyclohexyl-DNJ (SP173). After three days, the amount of progeny virus produced was determined by plaque assays on indicator Vero cells.

MDBK cells = test: MTT compound toxicity assay on MDBK cells; type: cell-based, Bovine; conditions: 72 hours; for CC50: BVDV (MDBK), concentration reducing MTT values (570 nm) by 50% relative to DMSO; for toxicity in MDBK cells (in words): MTT, FIG. 4B
Description: (§1) Compound toxicity assay. Compound cytotoxicity was assessed by using an MTT based toxicity assay kit (Sigma, St. Louis, Mo.) as described elsewhere (Gu et al., 2006). Briefly, cells cultured under conditions identical to those used in the viral assay were incubated with various concentrations of the compound for 72 hours. MTT was added to the media to a final concentration of 0.5 mg/ml and was incubated for 3 hours at 37 C. After the culture media was removed, formazan crystals was dissolved by adding 150 ul of solubilization solution (10% Triton X-100, 0.1 N HCl in anhydrous isopropanol) for 15-30 minutes. The absorbance of the dissolved formazan was measured spectrophotometrically at 570 nm with absorbance at 690 nm as background.
(§2) The anti-viral activity of this family of compounds against BVDV was then determined by a single cycle viral yield reduction assay in Madin Darby Bovine Kidney (MDBK) cells where the compounds are incubated with cells for 20 hours during the period of infection. Yields of virus were then determined by plaque assay on new MDBK cell monolayers. Compound toxicity was measured by MTT assay and the CC50 determined as the concentration of compound producing 50% reduction in absorption readings. […] This is consistent with previous findings in which oxygenation and methoxylation of side chains emanating from the ring nitrogen were less toxic in tissue culture and in animals than straight chain alkylated DNJs (Mehta et al., 2002b).

BVDV = BVDV single cycle virus yield reduction assay in MDBK cells; type: cell-based, Bovine Viral Diarrhea virus (NADL strain)
Description: BVDV antiviral and plaque assays. To evaluate antiviral activity against BVDV, a single cycle virus yield reduction assay was performed in the presence of various concentrations of the test compounds. Specifically, 2×10^5 MDBK cells/well were plated in 24 well plates. Twenty-four hours later, the cells were infected with BVDV at a multiplicity of infection (moi) of 0.5 PFU/cell in 100 ul complete media. After adsorption for 1 h at 37° C., the inoculum was removed, and cells were washed with media before media containing vehicle or various concentrations of each compound was added. At 22 hour post infection, both cell and media were collected and freeze-thawed three times before the virus was titered. For BVDV virus titer determination, 10^−2, 10^−3, and 10^−4 dilutions of virus were inoculated onto MDBK cells as described previously (Gu et al., 2000; Jordan et al., 2002). After absorption and washing the cells were overlaid with medium containing methylcellulose or soft agar and incubated at 37° C. for 3 days or until plaques were visible. Plaques were counted directly under the microscope or after staining with crystal violet in 70% methanol for 15 min.
as §2

BHK cells = test: MTT compound toxicity assay on BHK cells; type: cell-based; conditions: for CC50: WNV (BHK), MTT, 50% reduction relative to DMSO; for concentration without any detectable cell toxicity (highest concentration tested): BHK cells, measured in parallel to WNV assay, data not shown
Description: as §1

[1] = MTT compound toxicity assay on MDBK cells; type: cell-based, Bovine; conditions: bovine
Description: as §1, §2

[2] = MTT compound toxicity assay on BHK cells; type: cell-based; conditions: hamster; WNV (BHK); MTT, 50% reduction relative to DMSO
Description: as §1

HBV = HBV antigen assay: LHBs and MHBs secreted by HepG2.2.15 cells, immunoblot; type: cell-based, Hepatitis B virus; conditions: 7 days; for inhibition of secretion of viral glycoproteins MHBs and LHBs (in words): 50 uM, FIG. 6A
Description: MHBs and LHBs are HBV envelope proteins that are sensitive to glucosidase inhibition and inhibition of these important viral glycoproteins serves as a surrogate for HBV growth. […] To assess the activity of this compound in the context of viral replication, HepG2 2.2.15 cells were incubated with the indicated DNJ derived compound. HepG 2.2.15 cells secrete readily detectable amounts of MHBs and LHBs into the culture medium. After 7 days of incubation, the amount of HBV M and L in the culture medium was determined by western blot. […] The nature of the selective antiviral activity is not known, but may be due to cell specific activity since HBV is studied in human liver derived hepatoblastoma HepG2 cells and BVDV and WNV were studied in MDBK and BHK cells, respectively.
HBV antigen assay: Antiviral activity against HBV was determined using HepG2.2.15 cells, which contain a dimer of the HBV genome and express all viral gene products, including envelope glycoproteins (Sells, Chen, and Acs, 1987). Briefly, HepG2.2.15 cells were seeded in 24 well trays, and allowed to grow to confluence prior to addition of drug, as described previously (Simsek et al., 2005). After seven days of treatment, supernatants were harvested and assayed for the presence of the Large Hepatitis B (LHBs) and middle Hepatitis B (MHBs) glycoproteins by electrophoresis through 12% polyacrylamide gels and immunoblotting with a polyclonal antibody that recognizes the pre-S2 region of the LHBs and MHBs proteins (Research Diagnostics Inc., Flanders, N.J.) as described (Simsek et al., 2005). Quantitation was performed using AlphaEase software (Alphalnnotech).

MHBs = MHBs expressed transiently in cells; read-out: IC50, reduction of secretion of MHBs; cited from earlier work
[3] = WNV (BHK), plaque number reduced by 50% relative to DMSO, 48 hours
[4] = BVDV (MDBK), concentration reducing plaque number by 50% relative to DMSO, read-out: IC50
[5] = MDBK cells, MTT, text to FIG. 2B / 4B
[6] = Dengue virus, BHK, 72 h, read-out: IC50 against DV
[7] = DV (BHK), serotype 2, 72 hrs, read-out: IC50
[8] = BHK cells, moi 0.05, FIG. 3B / 4D
[9] = read-out: concentration inhibiting 50% of the WNV progeny produced, text to FIG. 3B, BHK cells, moi 0.05

## CCCCCCCCCN1C[C@H](O)[C@@H](O)[C@H](O)[C@H]1CO [NNDNJ, N-nonyl-DNJ, reference compound]
DV serotype 2; DV (BHK)
  SI (Selective Index, CC50/IC50): 20-100
DV serotype 2; text to FIG. 5A, BHK cells, DV serotype 2, 72 hours, read-out: IC50 against DV
  IC50: 1 µM
WNV; WNV (BHK)
  SI (Selective Index, CC50/IC50): 5-25
WNV; [3]
  IC50: 4 µM
MDBK cells
  CC50: 150 µM
BVDV; BVDV (MDBK)
  SI (Selective Index, CC50/IC50): >50
BVDV; [4]
  IC50: < 3 µM
BHK cells
  CC50: 20 to 100 µM

## OC[C@@H]1[C@@H](O)[C@H](O)[C@@H](O)CN1CCCCCCC1(O)CCCCC1 [OSL-3, N-hexyl(1-hydroxycyclohexyl)-1,5-dideoxy-1,5-imino-D-glucitol]
[1]; [5]
  CC50 at 72 h: > 300 µM

## OC[C@@H]1[C@@H](O)[C@H](O)[C@@H](O)CN1CCCCCC1(O)CCCCC1 [OSL-95II, N-pentyl(1-hydroxycyclohexyl)-1,5-dideoxy-1,5-imino-D-glucitol]
DV serotype 2; Dengue virus, BHK, 72 h
  IC50: 2 µM
DV serotype 2; [6]
  IC50: 1 to 2 µM
DV serotype 2; DV (BHK)
  selectivity ratio at 72 h: > 50
WNV; West Nile virus, BHK, 48 h
  IC50: 4.5 µM
WNV
  selectivity ratio at 48 h: > 9
MDBK cells
  toxicity in MDBK cells (in words): much less toxic than N-pentylcyclohexyl-DNJ (OSL-1); also recorded: significantly less cytotoxic against MDBK cells
[1]; BVDV (MDBK), concentration reducing MTT values (570 nm) by 50% relative to DMSO
  CC50 at 72 h: > 500 µM
BVDV; Bovine viral diarrhea virus isolates and strains, MDBK
  IC50: 3 µM
BVDV; bovine, BVDV (MDBK), read-out: SI (Selective Index, CC50/IC50)
  selectivity ratio at 20 h: > 166
[2]
  CC50 at 72 h: > 100 µM

## Nc1ccn([C@@H]2CS[C@H](CO)O2)c(=O)n1 [Compound 3TC, reference compound]
HBV; 3TC 1 ug/ml, FIG. 6B
  reduction of MHBs and LHBs in culture medium (in words): little effect

## OC[C@@H]1[C@@H](O)[C@H](O)[C@@H](O)CN1CCCCC1CCCCC1 [SP169, N-butylcyclohexyl-DNJ]
MHBs
  IC50: ≤ 35 µM
DV serotype 2; DV (BHK)
  SI (Selective Index, CC50/IC50): >66
DV serotype 2; [7]
  IC50: 1.5 µM
WNV; [8]
  antiviral activity against WNV (in words): comparable to NNDNJ in activity
WNV; WNV (BHK)
  SI (Selective Index, CC50/IC50): >40
WNV; [3]
  IC50: 2.5 µM
WNV; [9]
  IC50: 5 µM
MDBK cells
  CC50: 300 µM
BVDV; BVDV (MDBK)
  SI (Selective Index, CC50/IC50): >100
BVDV; tissue culture, data not shown, read-out: concentration inhibiting 50% of the yield of BVDV
  IC50: 3 µM
HBV
  inhibition of secretion of viral glycoproteins MHBs and LHBs (in words): unable to inhibit secretion of viral glycoproteins
BHK cells
  concentration without any detectable cell toxicity (highest concentration tested): 100 µM
  CC50: > 100 µM

## OC[C@@H]1[C@@H](O)[C@H](O)[C@@H](O)CN1CCCCCC1CCCCC1 [OSL-1, N-pentylcyclohexyl-DNJ]
HBV
  inhibition of secretion of viral glycoproteins MHBs and LHBs (in words): lacked antiviral activity in this assay

## OC[C@@H]1[C@@H](O)[C@H](O)[C@@H](O)CN1CCCCC1(O)CCCCC1 [OSL-12-31, N-butyl(1-hydroxycyclohexyl)-1,5-dideoxy-1,5-imino-D-glucitol]
MDBK cells
  toxicity in MDBK cells (in words): less toxic in MDBK cultures than SP169
[1]; [5]
  CC50 at 72 h: > 300 µM

## OC[C@@H]1[C@@H](O)[C@H](O)[C@@H](O)CN1CCCC1CCCCC1 [SP173, N-propylcyclohexyl-DNJ]
DV serotype 2; DV (BHK)
  SI (Selective Index, CC50/IC50): >33
DV serotype 2; [7]
  IC50: 3 µM
WNV; [8]
  antiviral activity against WNV (in words): comparable to NNDNJ in activity
WNV; WNV (BHK)
  SI (Selective Index, CC50/IC50): >100
WNV; [3]
  IC50: 1 µM
WNV; [9]
  IC50: 5 µM
MDBK cells
  CC50: > 150 µM
BVDV; BVDV (MDBK)
  SI (Selective Index, CC50/IC50): >30
BVDV; [4]
  IC50: 5 µM
BHK cells
  concentration without any detectable cell toxicity (highest concentration tested): 100 µM
  CC50: > 100 µM

## O[C@H]1[C@H](O)[C@@H](O)CN2CC[C@H](O)[C@H]12 [CAST, Castanospermine, reference compound]
DV serotype 2; Dengue virus, BHK, 72 h
  IC50: 6 µM
DV serotype 2; [6]
  IC50: 6 µM
DV serotype 2; DV (BHK)
  selectivity ratio at 72 h: > 17
WNV; West Nile virus, BHK, 48 h
  IC50: > 20 µM
WNV
  selectivity ratio at 48 h: 5
WNV; highest concentration tested (20 uM)
  antiviral activity against WNV (in words): no significant activity
[2]
  CC50 at 72 h: > 100 µM
